The text below walks through data of patent publication US20250000872A1, “FORMULATIONS AND DOSING REGIMENS FOR RIP1 KINASE INHIBITORS FOR TREATING AUTOIMMUNE AND INFLAMMATORY DISEASES” (Eli Lilly and Company, priority 2023, published 2025).

A value given as a limit tells only on which side of the number the result lay.

The subject of data set [1] is CYP3A. Briefly: In vitro drug-drug interaction studies: CYP3A inhibition. The data set is classed as in vitro ADME. To be noted: based upon in vitro studies.
The target of data set [2] is T1, OATP2B1 (Homo sapiens, UniProt O94956).
T1 sequence (O94956 1-709): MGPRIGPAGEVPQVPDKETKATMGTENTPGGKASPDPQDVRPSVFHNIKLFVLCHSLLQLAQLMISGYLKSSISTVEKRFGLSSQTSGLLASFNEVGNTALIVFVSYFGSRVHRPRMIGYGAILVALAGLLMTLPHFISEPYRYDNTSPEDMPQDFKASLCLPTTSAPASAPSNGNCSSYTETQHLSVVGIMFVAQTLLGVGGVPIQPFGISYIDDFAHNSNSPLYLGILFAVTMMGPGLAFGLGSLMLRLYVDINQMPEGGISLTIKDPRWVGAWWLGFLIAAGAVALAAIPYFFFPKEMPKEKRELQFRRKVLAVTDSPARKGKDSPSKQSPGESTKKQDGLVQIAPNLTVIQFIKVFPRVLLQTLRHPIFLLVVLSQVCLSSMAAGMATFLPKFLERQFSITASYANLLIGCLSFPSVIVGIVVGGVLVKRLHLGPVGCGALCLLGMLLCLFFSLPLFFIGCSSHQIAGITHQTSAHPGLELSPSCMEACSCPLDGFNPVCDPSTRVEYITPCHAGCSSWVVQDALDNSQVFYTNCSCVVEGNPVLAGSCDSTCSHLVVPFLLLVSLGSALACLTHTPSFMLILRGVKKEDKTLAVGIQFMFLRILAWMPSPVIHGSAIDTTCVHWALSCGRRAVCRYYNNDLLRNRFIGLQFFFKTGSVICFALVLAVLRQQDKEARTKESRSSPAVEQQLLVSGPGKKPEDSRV
Description: In vitro drug-drug interaction studies: OATP2B1 transporter inhibition. In kind it is in vitro ADME. To be noted: based upon in vitro studies.

Data set [3] addresses T2, BCRP (Homo sapiens, UniProt Q9UNQ0).
T2 sequence (Q9UNQ0 1-655): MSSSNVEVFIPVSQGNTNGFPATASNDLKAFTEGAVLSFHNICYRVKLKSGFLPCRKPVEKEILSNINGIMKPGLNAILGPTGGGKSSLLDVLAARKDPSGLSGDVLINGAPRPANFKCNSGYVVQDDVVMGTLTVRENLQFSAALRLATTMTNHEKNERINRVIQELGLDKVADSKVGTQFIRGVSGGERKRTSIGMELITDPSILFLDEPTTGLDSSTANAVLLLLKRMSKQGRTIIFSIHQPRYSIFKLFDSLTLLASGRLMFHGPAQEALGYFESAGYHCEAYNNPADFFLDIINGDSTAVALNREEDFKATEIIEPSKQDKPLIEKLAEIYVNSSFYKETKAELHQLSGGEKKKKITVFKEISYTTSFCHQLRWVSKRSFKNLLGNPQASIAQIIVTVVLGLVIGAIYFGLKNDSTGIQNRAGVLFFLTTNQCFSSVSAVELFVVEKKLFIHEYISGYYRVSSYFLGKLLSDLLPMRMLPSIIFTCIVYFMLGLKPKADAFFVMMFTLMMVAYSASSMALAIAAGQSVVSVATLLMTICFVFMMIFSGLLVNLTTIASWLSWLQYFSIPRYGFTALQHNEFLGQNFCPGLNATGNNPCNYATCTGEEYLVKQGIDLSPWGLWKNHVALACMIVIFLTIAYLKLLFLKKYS
Description: In vitro drug-drug interaction studies: BCRP transporter inhibition. To be noted: based upon in vitro studies. The data set is classed as in vitro ADME.

Data set [4] deals with P-gp (Homo sapiens, UniProt P08183). Briefly: In vitro drug-drug interaction studies: P-gp transporter inhibition. In kind it is in vitro ADME. To be noted: based upon in vitro studies.
The test system of data set [5] is monkeys. Description: Repeat-dose toxicity studies in monkeys (up to 9-month). In kind it is in vivo.
Test in data set [6]: as above
In kind it is in vivo. The settings on record: monkey, in vivo.

The target of data set [7] is T3, OCT1 (Homo sapiens, UniProt O15245).
T3 sequence (O15245 1-554): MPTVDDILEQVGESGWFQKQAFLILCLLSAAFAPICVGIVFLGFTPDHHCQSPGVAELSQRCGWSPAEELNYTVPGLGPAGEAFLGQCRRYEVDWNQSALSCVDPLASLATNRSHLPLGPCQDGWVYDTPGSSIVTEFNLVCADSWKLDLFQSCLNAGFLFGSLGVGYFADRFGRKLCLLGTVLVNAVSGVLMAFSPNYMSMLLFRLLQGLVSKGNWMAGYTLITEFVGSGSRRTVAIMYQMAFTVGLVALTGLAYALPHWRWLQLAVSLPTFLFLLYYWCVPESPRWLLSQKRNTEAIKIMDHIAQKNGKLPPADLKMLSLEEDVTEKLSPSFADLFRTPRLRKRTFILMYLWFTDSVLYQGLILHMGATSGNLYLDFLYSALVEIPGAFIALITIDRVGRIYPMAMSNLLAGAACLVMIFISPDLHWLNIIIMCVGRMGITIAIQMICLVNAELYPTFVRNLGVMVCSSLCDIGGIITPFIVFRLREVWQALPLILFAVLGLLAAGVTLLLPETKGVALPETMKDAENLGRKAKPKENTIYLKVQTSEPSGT
Description: In vitro drug-drug interaction studies: OCT1 transporter inhibition. The data set is classed as in vitro ADME. The settings on record: based upon in vitro studies.

The conditions of data set [8]: Yan et al. ASCPT 2021 poster, cited from earlier work.
The test system of data set [9] is rabbits. Briefly: Rabbit embryofetal development study. The data set is classed as in vivo.
Data set [10] can be described thus: Rabbit embryofetal development study. In kind it is in vivo. The settings on record: female, rabbit, in vivo, po; plasma toxicokinetics on Gestational Day 19, 120 mg/kg/day; read-out: AUC0-24 at rabbit EFD NOEL.
Setting [11] is: AUC in animals/(predicted) AUC in humans.

P-gp, sequence (P08183 whole entry): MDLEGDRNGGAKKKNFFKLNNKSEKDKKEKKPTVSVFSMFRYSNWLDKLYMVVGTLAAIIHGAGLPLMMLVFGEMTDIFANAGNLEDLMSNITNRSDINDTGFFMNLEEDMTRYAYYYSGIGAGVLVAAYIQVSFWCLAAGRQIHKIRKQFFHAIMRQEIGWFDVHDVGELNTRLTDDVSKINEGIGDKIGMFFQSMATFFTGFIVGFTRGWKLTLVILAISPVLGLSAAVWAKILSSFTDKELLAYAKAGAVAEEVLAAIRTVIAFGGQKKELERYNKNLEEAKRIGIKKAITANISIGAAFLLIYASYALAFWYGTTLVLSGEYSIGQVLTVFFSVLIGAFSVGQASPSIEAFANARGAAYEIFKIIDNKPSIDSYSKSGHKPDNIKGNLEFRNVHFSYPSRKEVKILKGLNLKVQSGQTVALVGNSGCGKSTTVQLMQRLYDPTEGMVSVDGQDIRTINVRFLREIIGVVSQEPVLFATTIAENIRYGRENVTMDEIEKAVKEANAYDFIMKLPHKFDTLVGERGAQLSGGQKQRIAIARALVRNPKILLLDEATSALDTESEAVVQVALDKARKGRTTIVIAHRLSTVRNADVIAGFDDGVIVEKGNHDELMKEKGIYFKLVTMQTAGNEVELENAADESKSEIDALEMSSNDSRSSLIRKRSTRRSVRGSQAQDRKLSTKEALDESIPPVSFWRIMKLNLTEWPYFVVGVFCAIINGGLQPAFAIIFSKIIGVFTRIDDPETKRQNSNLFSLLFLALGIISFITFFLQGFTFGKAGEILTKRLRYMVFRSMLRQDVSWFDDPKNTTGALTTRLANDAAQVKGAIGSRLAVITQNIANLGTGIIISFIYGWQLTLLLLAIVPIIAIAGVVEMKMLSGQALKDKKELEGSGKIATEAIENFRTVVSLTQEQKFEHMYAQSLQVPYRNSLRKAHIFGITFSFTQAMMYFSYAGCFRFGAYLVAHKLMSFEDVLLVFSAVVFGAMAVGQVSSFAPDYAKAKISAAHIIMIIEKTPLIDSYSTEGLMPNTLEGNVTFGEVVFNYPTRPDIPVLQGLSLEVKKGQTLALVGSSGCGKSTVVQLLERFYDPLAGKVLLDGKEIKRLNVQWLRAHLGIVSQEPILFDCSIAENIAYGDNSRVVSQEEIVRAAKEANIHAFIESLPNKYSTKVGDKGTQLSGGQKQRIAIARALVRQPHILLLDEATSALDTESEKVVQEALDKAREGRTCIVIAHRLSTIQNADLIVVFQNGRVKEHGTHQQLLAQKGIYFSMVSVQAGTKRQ

For `CN1C(=O)[C@@H](NC(=O)c2n[nH]c(Cc3ccccc3)n2)COc2ccc(C#CC(C)(C)O)cc21` [Compound I, (S)-5-benzyl-N-(7-(3-hydroxy-3-methylbut-1-yn-1-yl)-5-methyl-4-oxo-2,3,4,5-tetrahydrobenzo[b][1,4]oxazepin-3-yl)-1H-1,2,4-triazole-3-carboxamide], in [1], the “inhibition of drugs metabolized by CYP3A” value is listed as “may inhibit”. Besides, the “inhibition of substrates of OATP2B1 transporter” value in [2] is “may also inhibit”. Further, the “inhibition of substrates of BCRP transporter” value in [3] is “may also inhibit”. Also, the “inhibition of substrates of P-gp transporter” value in data set [4] was “may also inhibit”. In data set [5] (setting [11]), the “Margin of Safety, monkey NOAEL vs human 50 mg” value was 17 X and the “Margin of Safety, monkey NOAEL vs human 125 mg” value is recorded as 7 X. Besides, the “doses with mortality related to secondary infections” value in data set [5] (monkeys, toxicology studies up to 9 months) was no less than 250 mg/kg/day. In addition, the NOAEL (as a rule, the highest tested level that showed no adverse finding) at 9 months in data set [6] amounted to 150 mg/kg. In addition, the AUC(0-t) in data set [6] (po, plasma toxicokinetics on Day 273, 150 mg/kg/day, read-out: AUC0-24 at monkey NOAEL) was 278 µg·h/mL. Moreover, in [7], the “inhibition of substrates of OCT1 transporter” value is listed as “may also inhibit”. The safety and tolerability result in data set [8] (following single and multiple doses) is “generally safe, and well tolerated”. The pharmacokinetics linearity result in [8] (tested dose range up to 1000 mg) is recorded as “linear pharmacokinetics”. Further, in [9] (setting [11]), the “Margin of Safety, rabbit EFD NOEL vs human 50 mg” value is recorded as 29 X and the “Margin of Safety, rabbit EFD NOEL vs human 125 mg” value is 12 X. In addition, the “developmental and reproductive toxicology outcome, rabbits” value in data set [9] (concerns for women of childbearing potential) is on record as “did not reveal any concerns”. The “Rabbit EFD NOEL dose” value in data set [9] (rabbit embryofetal development study) is on record as 120 mg/kg/day. Also, the AUC(0-t) in data set [10] stood at 464 µg·h/mL.
